According to patent US9771345B2, “Coferons and methods of making and using them” (Cornell University, priority 2009, dated 2017):

Tests used:
[1] = Alizarin Red S displacement: equilibrium between boronic acid and diols or other ligands; format: physicochemical; settings: 0.10 M phosphate buffer, pH 7.4; no Keq range given
Excerpt: To assess the potential of boronic acid diol pairs as potential summa linkers within Coferons, the Alizarin Red S method was used essentially as described (Springsteen, G. and Wang, B, Tetrahedron 58: 5291-5300 (2002), which is hereby incorporated by reference in its entirety). Alizarin Red S gives a red color when free in solution, and shifts to yellow when complexed to boronic acids.
To determine equilibria between boronic acid species and diols or other ligands, a solution containing 2.0×10^−3 M boronic acid, 1.0×10^−4 M of ARS in 0.10 M phosphate buffer, pH 7.4 was prepared. Diol or other ligands from 3×10^−2 M to 1.0×10^−4 M were serially diluted into the above boronic acid-ARS mix, and absorbance spectra were determined from 350 to 750 nm. (stock solutions were made to 100 mM in DMSO). The higher concentrations of diol would displace the boronic acid from complexation with ARS, liberating free ARS and turning the solution pink. The percent complexed and percent free ARS was determined by comparing absorbance level to fully complexed and free ARS at 440 and 550 nm. The approximate equilibrium constant Keq2 for a given boronic acid-diol complexation was estimated using the formula: Keq=[ARS−PBA]/[ARS]×[PBA] [PBA]=[ARS−PBA]/[ARS]×Keq [Sorb−PBA]=0.002−[PBA]−[ARS−PBA] [Sorb]=Total Sorb−[Sorb−PBA] Keq2=[Sorb PBA]/[Sorb]×[PBA] (where ARS=Alizarin Red S; Sorb=sorbitol; and PBA=Phenylboronic acid as an example).

[2] = LC-MS/MS determination of dimerization of summa linkers; format: physicochemical; settings: for Dimer 4 level: after 115 h
Excerpt: For summa linkers and coferons that form dimers that are slow to hydrolyze/equilibrate under the chromatographic conditions, evidence for dimerization or oligomerization may be generated using LC-MS/MS methods in which the monomeric and dimeric species are separated by reversed-phase liquid chromatography and identified using tandem mass spectrometric methods, typically utilizing MRM transitions to maximize sensitivity. Often this approach is capable of separating and quantifying isomeric and diastereomeric dimeric states of the summa linker and coferon assemblies.
Typically, a solution of the following homodimeric summa linker was incubated under various conditions of pH, concentration, organic cosolvent, or protein additives, etc. and aliquots were chromatographed on a Primesep 200 (150×4.6 mm, 5μ) RP-HPLC column using a flow rate of 1.0 mL/min and a linear gradient of 0.1% aqueous TFA/acetonitrile over 25-30 minutes. Preparations containing a known amount of dimeric species (as determined by NMR for example) can be employed as a standard to allow for accurate quantitation of monomeric and dimeric states. For example, using such conditions, 4 isomeric dimers of the following racemic amino-cyclobutanone summa linker moiety (RT 7.29 min; example 47; >99.7% monomeric) were quantified under various conditions. When incubated at 0.125 mg/mL at 20° C. at pH 2.0 in 0.1% TFA, dimers-1, -2 & -3 eluting at 15, 15.5 and 16 min, respectively, increased from 0.06%, 0.06% and 0.11% at time zero to 2.35, 2.3%, and 5.2% after 169 h; dimer-4 was not observed under these conditions. […] Complete equilibrium between monomer and dimer-4 was not achieved within this timeframe, as dimer-4 was still increasing at 169 h.

[3] = 0.125 mg/mL, 20° C., pH 2.0 in 0.1% TFA, after 169 h
[4] = 0.125 mg/mL, 20° C., pH 2.0 in 0.1% TFA, time zero

Row | SMILES | affinity of diol or other ligand for boronic acids in aqueous solution (in words) [1] | also measured
1 | CC(CO)(CO)CO [1,1,1-tris(hydroxymethyl)ethane, 1,1,1-Tris(hydroxymethyl)ethane] | lower affinities for boronic acids | –
2 | O=C[C@H](O)[C@@H](O)[C@H](O)[C@H](O)CO [D-(+)-glucose, D-(+)-Glucose] | lower affinities for boronic acids | –
3 | CC(C)(O)C(C)(C)O [pinacol, Pinacol] | lower affinities for boronic acids | –
4 | O=C(CO)CO [1,3-dihydroxyacetone] | lower affinities for boronic acids | –
5 | CC(CO)(CO)C(=O)O [2,2-bis(hydroxymethyl)propionic acid, 2,2-Bis(hydroxymethyl)propionic acid] | lower affinities for boronic acids | –
6 | OCC(CO)(CO)CO [pentaerythritol, Pentaerythritol] | lower affinities for boronic acids | –
7 | CC(O)C(=O)O (stereo not shown) [lactic acid (solution), Lactic acid] | lower affinities for boronic acids | –
8 | CC(O)(C(=O)O)C(F)(F)F (stereo not shown) [3,3,3-Trifluoro-2-hydroxy-2-methylpropionic Acid] | lower affinities for boronic acids | –
9 | O[C@@H]1CCCC[C@@H]1O [cis-1,2-cyclohexanediol, cis-1,2-Cyclohexanediol] | lower affinities for boronic acids | –
10 | O=C(O)C(O)(C(F)(F)F)C(F)(F)F [3,3,3-Trifluoro-2-hydroxy-2-(trifluoromethyl)propionic acid] | lower affinities for boronic acids | –
11 | O[C@@H]1CCCC[C@H]1O (relative stereo) [trans-1,2-cyclohexanediol, trans-1,2-Cyclohexanediol] | lower affinities for boronic acids | –
12 | O[C@@H]1CNC[C@@H]1O [(3S,4R)-pyrrolidine-3,4-diol] | lower affinities for boronic acids | –
13 | O=C([O-])C(=O)CO.[Li+] [hydroxypyruvic acid, lithium salt, Hydroxypyruvic acid, Lithium salt] | lower affinities for boronic acids | –
14 | Cc1ccc(O)c(N)c1 [2-amino-4-methylphenol, 2-Amino-4-methylphenol] | lower affinities for boronic acids | –
15 | CC(N)(CO)CO [2-amino-2-methyl-1,3-propanediol, 2-Amino-2-methyl-1,3-propanediol] | lower affinities for boronic acids | –
16 | O=C(O)C1(O)CNC1 [3-hydroxyazetidine-3-carboxylic acid] | lower affinities for boronic acids | –
17 | CNCC(O)CO (stereo not shown) [3-methylamino-1,2-propanediol, 3-Methylamino-1,2-propanediol] | lower affinities for boronic acids | –
18 | CCOC(=O)c1cnc(NC2CCC2=O)nc1C (stereo not shown) [Example 47, Ethyl 4-methyl-2-((2-oxocyclobutyl)amino)pyrimidine-5-carboxylate] | – | dimer-4 formation ([2]; 0.125 mg/mL, 20° C., pH 2.0 in 0.1% TFA): not observed; dimer-1 level [2, 3]: 2.35%; dimer-2 level [2, 3]: 2.3%; dimer-3 level [2, 3]: 5.2%; dimer-1 level [2, 4]: 0.06%; dimer-2 level [2, 4]: 0.06%; dimer-3 level [2, 4]: 0.11%; fraction of dimer-4 at equilibrium ([2]; 0.5 mg/mL, pH7.4 HEPES buffer with BSA): > 14%; Dimer 4 level ([2]; 0.5 mg/mL, pH7.4 HEPES buffer, in the absence of BSA): 4.73%; Dimer 4 level ([2]; 0.5 mg/mL, pH7.4 HEPES buffer, in the presence of BSA): 13.75%; dimer-4 level ([2]; pH7.4 HEPES buffer, 169 h): 1.82%; levels of dimers-1, -2, and -3 ([2]; pH7.4 HEPES buffer, over 169 h): below 0.01%; dimer-4 level ([2]; pH7.4 HEPES buffer, start): < 0.015%
19 | NC(CO)(CO)CO [tris base (TRIZMA Base), Tris Base (TRIZMA Base)] | lower affinities for boronic acids | –

Second part, led by results:

Row | affinity of diol or other ligand for boronic acids in aqueous solution (in words) [1] | SMILES | also measured
20 | lower affinities for boronic acids | O=C(O)C(O)c1cccc(F)c1F (stereo not shown) [2,3-difluoromandelic acid, 2,3-Difluoromandelic acid] | –
21 | lower affinities for boronic acids | O=C(O)C(O)c1ccc(F)cc1F (stereo not shown) [2,4-difluoromandelic acid, 2,4-Difluoromandelic acid] | –
22 | lower affinities for boronic acids | O=C(O)C(O)c1cc(F)cc(F)c1 (stereo not shown) [3,5-difluoromandelic acid, 3,5-Difluoromandelic acid] | –
23 | lower affinities for boronic acids | O=C(O)C(O)c1cc(F)ccc1F (stereo not shown) [2,5-difluoromandelic acid, 2,5-Difluoromandelic acid] | –
24 | lower affinities for boronic acids | O=C(O)C(=O)Cc1ccccc1 [phenylpyruvic acid, Phenylpyruvic acid] | –
25 | lower affinities for boronic acids | O=C(NCCO)c1ccccc1O [N-(2-hydroxyethyl)salicylamide, N-(2-Hydroxyethyl)salicylamide] | –
26 | lower affinities for boronic acids | CNc1ccccc1O [2-(methylamino)phenol, 2-(Methylamino)phenol] | –
27 | lower affinities for boronic acids | CC(=O)Nc1ccccc1O [2-acetamidophenol, 2-Acetamidophenol] | –
28 | lower affinities for boronic acids | O=C(O)C(O)c1c(F)cccc1F (stereo not shown) [2,6-difluoromandelic acid, 2,6-Difluoromandelic acid] | –
29 | lower affinities for boronic acids | O=C(O)c1ccccc1O [salicylic acid, Salicylic acid] | –
30 | lower affinities for boronic acids | O=C(O)C(O)c1ccccc1 (racemic) [DL-mandelic acid, DL-Mandelic acid] | –
31 | lower affinities for boronic acids | COc1cccc(CO)c1O [2-hydroxy-3-methoxybenzyl alcohol, 2-Hydroxy-3-methoxybenzyl alcohol] | –
32 | lower affinities for boronic acids | O=C(O)C(O)c1ccccc1F (stereo not shown) [2-fluoromandelic acid, 2-Fluoromandelic acid] | –
33 | lower affinities for boronic acids | O=C(O)c1c(O)cccc1O [2,6-dihydroxybenzoic acid, 2,6-Dihydroxybenzoic acid] | –
34 | lower affinities for boronic acids | O=C(O)C(O)c1ccc(C(F)(F)F)cc1 (stereo not shown) [4-(trifluoromethyl)mandelic acid, 4-(Trifluoromethyl)mandelic acid] | –
